Laboratory results as given in ChEMBL document CHEMBL3882724 (2013).

Experiments:
CYP11B = target: T1, CYP11B (Rattus norvegicus, UniProt P15393+P30099); assay: Inhibition of Sprague-Dawley rat adrenal mitochondrial CYP11B assessed as decrease in conversion of 11-deoxycortisol to cortisol at 100 nM incubated for 60 mins by ELISA relative to control; type: protein assay; details: adrenal mitochondria, probe 11-deoxycortisol
T1 sequence (P30099 whole entry): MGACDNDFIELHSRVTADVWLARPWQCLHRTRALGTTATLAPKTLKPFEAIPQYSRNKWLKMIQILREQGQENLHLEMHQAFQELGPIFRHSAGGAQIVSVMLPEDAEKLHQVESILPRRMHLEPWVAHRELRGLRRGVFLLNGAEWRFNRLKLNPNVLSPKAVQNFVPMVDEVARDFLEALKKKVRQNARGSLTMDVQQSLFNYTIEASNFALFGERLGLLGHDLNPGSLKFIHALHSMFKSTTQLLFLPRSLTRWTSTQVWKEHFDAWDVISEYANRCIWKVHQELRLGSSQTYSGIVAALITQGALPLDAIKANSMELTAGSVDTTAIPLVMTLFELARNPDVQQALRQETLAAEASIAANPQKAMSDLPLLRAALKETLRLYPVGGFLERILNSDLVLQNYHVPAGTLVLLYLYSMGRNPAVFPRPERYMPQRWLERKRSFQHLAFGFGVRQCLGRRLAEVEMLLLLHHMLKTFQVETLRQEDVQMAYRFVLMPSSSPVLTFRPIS
T1 sequence (P15393 whole entry): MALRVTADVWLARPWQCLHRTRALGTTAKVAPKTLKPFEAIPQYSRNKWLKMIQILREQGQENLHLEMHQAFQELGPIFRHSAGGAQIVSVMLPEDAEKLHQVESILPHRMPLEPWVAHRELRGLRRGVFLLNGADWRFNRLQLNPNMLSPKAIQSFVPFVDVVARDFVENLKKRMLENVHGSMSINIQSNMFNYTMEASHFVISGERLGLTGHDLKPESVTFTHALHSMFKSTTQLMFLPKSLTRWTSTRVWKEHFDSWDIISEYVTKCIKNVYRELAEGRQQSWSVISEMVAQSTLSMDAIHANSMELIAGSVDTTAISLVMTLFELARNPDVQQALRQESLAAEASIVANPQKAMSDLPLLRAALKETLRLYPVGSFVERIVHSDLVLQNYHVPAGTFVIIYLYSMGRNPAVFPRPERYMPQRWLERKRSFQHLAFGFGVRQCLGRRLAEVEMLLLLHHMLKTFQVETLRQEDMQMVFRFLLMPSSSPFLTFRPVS

[1] = target: T2, CYP21 (steroid 21-hydroxylase) (Homo sapiens, UniProt P08686); assay: Inhibition of human CYP21 transfected in HEK293 cells assessed as decrease in conversion of progesterone to 11-deoxycorticosterone at 100 nM preincubated for 5 hrs followed by progesterone addition measured after 20 hrs by ELISA relative to control; type: cell-based; details: HEK293 cells transfected with human CYP21, probe progesterone
T2 sequence (P08686 whole entry): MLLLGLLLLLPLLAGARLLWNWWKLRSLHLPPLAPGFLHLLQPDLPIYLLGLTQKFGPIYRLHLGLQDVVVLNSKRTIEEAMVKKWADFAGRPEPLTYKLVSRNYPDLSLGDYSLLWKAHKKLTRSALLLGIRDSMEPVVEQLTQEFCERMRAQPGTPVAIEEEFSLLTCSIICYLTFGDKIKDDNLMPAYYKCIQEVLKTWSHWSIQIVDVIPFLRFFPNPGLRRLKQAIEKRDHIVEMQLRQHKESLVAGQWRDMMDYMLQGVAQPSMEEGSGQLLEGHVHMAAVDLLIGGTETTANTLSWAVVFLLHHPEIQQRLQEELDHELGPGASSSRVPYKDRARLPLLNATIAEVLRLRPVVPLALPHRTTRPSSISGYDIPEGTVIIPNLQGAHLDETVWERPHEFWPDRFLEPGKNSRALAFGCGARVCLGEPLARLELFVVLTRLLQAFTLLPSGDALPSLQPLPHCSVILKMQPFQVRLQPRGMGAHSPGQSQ

[2] = Half life in human liver microsomes at 1 uM by LC-MS/MS analysis
[3] = target: T3, Steroid 17-alpha-hydroxylase/17,20 lyase (Homo sapiens, UniProt P05093); assay: Inhibition of CYP17 in human testicular microsomes using 17alpha-hydroxypregnenolone as substrate assessed as decrease in DHEA levels at 10 nM after 90 mins by ELISA relative to control; parameters: species or system Testis; details: 1.5 h
T3 sequence (P05093 whole entry): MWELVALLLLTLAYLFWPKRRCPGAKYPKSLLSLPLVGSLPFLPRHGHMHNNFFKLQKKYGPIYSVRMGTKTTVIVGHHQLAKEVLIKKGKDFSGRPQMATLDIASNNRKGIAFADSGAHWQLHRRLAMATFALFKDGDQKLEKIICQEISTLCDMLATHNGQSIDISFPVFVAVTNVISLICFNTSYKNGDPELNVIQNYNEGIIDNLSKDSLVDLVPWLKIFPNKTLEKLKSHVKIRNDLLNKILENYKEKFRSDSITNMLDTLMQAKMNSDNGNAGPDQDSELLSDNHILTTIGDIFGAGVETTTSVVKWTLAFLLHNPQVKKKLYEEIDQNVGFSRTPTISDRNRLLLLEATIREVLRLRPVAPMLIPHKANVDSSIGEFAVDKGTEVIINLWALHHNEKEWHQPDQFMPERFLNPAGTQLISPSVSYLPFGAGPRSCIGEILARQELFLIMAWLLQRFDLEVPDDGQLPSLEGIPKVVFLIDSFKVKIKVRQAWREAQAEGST

[4] = target: T3, Steroid 17-alpha-hydroxylase/17,20 lyase; assay: Inhibition of CYP17 in human testicular microsomes using 17alpha-hydroxypregnenolone as substrate assessed as decrease in DHEA levels after 90 mins by ELISA; parameters: species or system Testis
[5] = target: T3, Steroid 17-alpha-hydroxylase/17,20 lyase; assay: Inhibition of human C17,20-lyase in human testis microsomes at 10 nM using 17alpha-hydroxypregnenolone/[21-3H]-17alpha-hydroxypregnenolone as substrate after 30 mins by scintillation counting method relative to control; details: 0.5 h
[6] = Half life in rat liver microsomes at 1 uM by LC-MS/MS analysis
[7] = target: T3, Steroid 17-alpha-hydroxylase/17,20 lyase; assay: Inhibition of CYP17 in human H295R cells assessed as decrease in testosterone levels after 24 hrs by ELISA; type: cell-based

Row | SMILES | inhibition at 1 h, 0.1 µM (CYP11B) | inhibition at 20 h, 0.1 µM [1] | half-life at 1 µM [2] | inhibition at 0.01 µM [3] | IC50 [4] | inhibition at 0.01 µM [5] | half-life at 1 µM [6] | IC50 [7]
1 | CN1CC[C@@]2(C)C(=CC1=O)CC[C@H]1C3=CC=C(c4cccnc4)[C@@]3(C)CC[C@@H]12 | < 32% | ≥ 30% | 1 to 50 min | ≥ 80% | ≤ 11 nM |  |  | 
2 | CCOc1cncc(C2=CC[C@H]3[C@@H]4CC[C@H]5COC(=O)CC[C@]5(C)[C@H]4CC[C@]23C)c1 |  |  |  |  |  | 3 to 38% |  | 
3 | C[C@]12CCC(=O)OC[C@@H]1CC[C@@H]1[C@@H]2CC[C@]2(C)C(c3cccnc3)=CC[C@@H]12 |  |  | 1 to 50 min |  | ≤ 11 nM | ≥ 38% | 10 to 60 min | 
4 | C[C@]12CC[C@H]3[C@@H](CCN4C(=O)CC=CC[C@]34C)[C@@H]1CC=C2c1cccnc1 |  |  | 1 to 10 min |  |  | ≥ 38% | 1 to 10 min | 
5 | C[C@]12CC[C@H]3[C@@H](CCC4=CC(=O)CC[C@@]43C)C1=CC=C2n1ccnc1 | ≥ 50% | < 30% | ≥ 50 min | ≥ 80% | ≤ 11 nM |  | 10 to 60 min | 
6 | C[C@]12CCOC(=O)C[C@@H]1CC[C@@H]1[C@@H]2CC[C@]2(C)C(c3cccnc3)=CC[C@@H]12 |  |  | 1 to 50 min |  | ≤ 11 nM | ≥ 38% | 10 to 60 min | 
7 | C[C@]12CCNC(=O)C=C1CC[C@@H]1[C@@H]2CC[C@]2(C)C(n3cncn3)=CC[C@@H]12 | < 32% | ≥ 30% | 1 to 10 min | ≥ 80% | ≤ 11 nM |  | 1 to 10 min | 
8 | C[C@]12CC[C@H]3[C@@H](CC=C4C[C@@H](O)CC[C@@]43C)C1=CC=C2c1cccnc1 | < 32% | < 30% | 1 to 50 min | 50 to 80% | ≤ 11 nM |  | 10 to 60 min | ≤ 15 nM
9 | C[C@]12CC(O)C[C@@H]1CC[C@@H]1[C@@H]2CC[C@]2(C)C(n3ccnc3)=CC[C@@H]12 (stereo not given in full) | ≥ 50% | ≥ 30% | 10 to 60 min | ≥ 80% | ≤ 11 nM |  | 10 to 60 min | ≤ 15 nM
10 | C[C@]12CC[C@H]3[C@@H](CC[C@H]4CC(=O)CC[C@@]43C)C1=CC=C2n1ccnc1 | < 32% | < 30% | 1 to 50 min | ≥ 80% | ≤ 11 nM |  |  | 
11 | C[C@]12CC[C@H]3[C@@H](CCN4C(=O)C=CCC[C@]34C)[C@@H]1CC=C2c1cccnc1 |  |  |  |  |  | ≥ 38% |  | 
12 | COc1cncc(C2=CC[C@H]3[C@@H]4CC[C@H]5COC(=O)CC[C@]5(C)[C@H]4CC[C@]23C)c1 |  |  |  |  |  | ≥ 38% |  | 
13 | C[C@]12CC[C@H]3[C@@H](CC[C@H]4CC(=O)CC[C@@]43C)C1=CC=C2c1cccnc1 | ≥ 50% | ≥ 30% | 1 to 50 min | ≥ 80% | ≤ 11 nM |  |  | 
